Data from article PMC7717705, “Topoisomerases inhibition and DNA binding mode of daunomycin–oligoarginine conjugate” (Journal of Enzyme Inhibition and Medicinal Chemistry, 2020).

Experiments:
[1] = test system: Calf Thymus DNA (ctDNA); experiment: Circular dichroism / induced circular dichroism (ICD) of ctDNA; assay type: binding
Procedure: Circular dichroism (CD) measurements were performed on a JascoJ-810 spectropolarimeter using a 0.1 cm path-length quartz cuvette at room temperature and the following parameters: three scans at a speed of 20 nm/min, 3 accumulations, 4 s time constant, 1 nm band width and 0.2 nm data pitch.
The spectral bandwidth was set up at 1 nm in the wavelength range of λ = 225–300 nm. The CD spectra of Calf Thymus DNA (ctDNA; 0.2 mg/mL) with or without drug (at selected concentrations) were measured under a nitrogen atmosphere using a 10 mM Tris-HCl buffer at pH 7.5. Results are presented as a mean of three scans and the buffer background was electronically subtracted from each measurement.
ICD measurements were recorded by keeping the concentration of ctDNA constant (0.2 mg/mL) and increasing drugs concentrations from 0 to 120 µM.

[2] = test system: h-TopoI; experiment: h-TopoI DNA relaxation assay (negatively supercoiled pBluescript plasmid, agarose gel); assay type: biochemical, human; details: drug 1.2 uM (not saturating); h-TopoI 100 nM; plasmid 7.5 nM; drug-DNA pre-incubation 10 min at 4 °C, then 60 min at 37 °C; pH 7.0; 1.2% agarose gel, ethidium bromide
Procedure: (§1) Human topoisomerase IIα (h-TopoIIα) was purchased from Affymetrix (product number 78303) and stored at −20 °C. Human Topoisomerase I (Sigma, St. Louis, MO). pBluescript (pBs) negatively supercoiled plasmid was directly extracted from an over-night E. coli cell culture by Invitrogen HiPure Plasmid Midi prep Kit according to the instruction of the manufacturers.
(§2) DNA relaxation assays were performed as previously described[24]^,[25] using the negative supercoiled pBluScript plasmid (pBS) purified from Escherichia coli as a substrate of DNA topoisomerases.
For h-TopoI assay the enzyme (100 nM), was incubated for 60 min at 37 °C with negatively supercoiled pBluescript plasmid (7.5 nM) in a final volume of 20 µL of 1X reaction Buffer (10 mM Tris-HCl, pH 7.0, 100 mM NaCl, 0.1 mM NaEDTA, 10 mM MgCL2 and 50 µg/ml BSA). […]
(§3) All reactions were stopped by the addition of SDS to a final concentration of 1% and the products were analysed by electrophoresis on a 1.2% agarose gel in presence of 0.5X Tris-Borate EDTA buffer. […] Finally the DNA bands were visualised using a BioRad Versadoc imaging system and quantified by Quantity One® software. The relative intensity of each band in the experiment was measured and used to calculate the amount of total DNA and the fraction of total products. For each condition the relaxation activity was expressed as a percentage of DNA products on total DNA[26].

[3] = test system: DNA plasmid (pBs); experiment: Fluorescence quenching titration with plasmid DNA; assay type: binding; details: drug 10 µM, pBs plasmid 5 to 40 nM, 20 mM Tris pH 7.5, 5 min equilibrium, room temperature
Procedure: (§4) Fluorescence measurements of Dau and Dau-Arg6 were carried out with a JASCO spectrofluorimeter (FP8200) using Quartz cells of 1 cm. Spectra were recorded at drug concentration of 10 µM in a final volume of 1 ml of 20 mM Tris buffer (pH 7.5).
For quenching experiment fluorescence titrations were conducted by keeping the concentration of drugs constant and varying the concentration of pBs plasmid from 5 to 40 nM. The spectroscopic measurements were recorded after 5 min to reach the equilibrium between the drugs and DNA. The spectra were recorded at room temperature in the wavelengths range of λ = 500–700 nm.

[4] = Fluorescence emission spectrum; assay type: physicochemical; details: drug 10 µM in 20 mM Tris buffer, pH 7.5; λ = 500–750 nm
Procedure: as §4

[5] = test system: h-TopoIIα; experiment: h-TopoIIα DNA relaxation assay (negatively supercoiled pBs plasmid, agarose gel); assay type: biochemical, human; details: drug 1.2 μM; h-TopoIIα 0.4 units; pBs 7.5 nM; drug-DNA pre-incubation 10 min at 4 °C, then 30 min at 30 °C; pH 7.9, 1 mM ATP; 1.2% agarose gel, ethidium bromide; three independent assays
Procedure: as §1, §2
For h-TopoII-α assay the enzyme (0.4 units) was incubated for 30 min at 30 °C with negatively supercoiled pBS plasmid (7.5 nM), in a final volume of 20 µl of 1× reaction Buffer (10 mM Tris-HCl, pH 7.9, 50 mM NaCl, 50 mM KCl, 0.1 mM EDTA, 5 mM MgCl2, 15 µg/ml BSA, 1 mM ATP). […]
as §3

[6] = test system: Calf Thymus-DNA (ctDNA); experiment: DNA thermal melting monitored by circular dichroism; assay type: binding; details: 4 µM drug, ctDNA 0.2 mg/mL, Tris–HCl buffer, λ = 260 nm
Procedure: Melting studies were performed on a JascoJ-810 spectropolarimeter as described above by raising the temperature from 5 to 90 °C in 1 °C/min increments using a circulating water bath and monitoring the profiles at λ = 260 nm.
The DNA thermal melting was measured by monitoring the changes of HT[V] signal with temperature. Melting temperatures (Tm) were determined for each transition data by fitting sigmoidal curves using Boltzmann equations and obtaining good R-squared values (>0.95).

COc1cccc2c1C(=O)c1c(O)c3c(c(O)c1C2=O)C[C@@](O)(C(C)=O)C[C@@H]3O[C@H]1C[C@H](N)[C@H](O)[C@H](C)O1 [Dau, daunomycin]
DNA binding mode ([1]; CD studies with ctDNA 0.2 mg/mL, 10 mM Tris-HCl pH 7.5): mainly by intercalation | change of negative CD band of ctDNA at λ = 245 nm ([1]; ctDNA 0.2 mg/mL, 10 mM Tris-HCl pH 7.5, room temperature, increasing drug concentration, mean of three scans): shifting to zero level | inhibition of the TopoI activity (DNA relaxation) [2]: 20% | fluorescence intensity on titration with DNA plasmid [3]: decreases with increasing concentration of DNA | emission maximum λmax [4]: 596 nm | inhibition of the total h-TopoIIα activity (DNA relaxation) [5]: 50% | melting temperature (Tm) of ctDNA with drug ([6]; 5 to 90 °C at 1 °C/min, Boltzmann fit, ctDNA alone 81.3 °C): 90.3 °C | increase in melting temperature of ctDNA ([6]; versus ctDNA without drugs (81 °C)): about 9 °C
